According to paper PMC7587962, “Evaluation of Cytotoxicity and α-Glucosidase Inhibitory Activity of Amide and Polyamino-Derivatives of Lupane Triterpenoids” (Molecules, 2020):
Read-outs that look alike come from different tables or passages of the source.

Assays:
SK-OV-3 = experiment: NCI-60 SRB screen: ovarian cancer SK-OV-3; assay type: cell-based, human; details: SK-OV-3
Melanoma subpanel = experiment: NCI-60 screen, subpanel Melanoma
RPMI-8226 = experiment: NCI-60 SRB screen: leukemia RPMI-8226; assay type: cell-based; details: Homo sapiens, 48 h, RPMI-8226
SF-268 = experiment: NCI-60 SRB screen: CNS cancer SF-268; assay type: cell-based, human; details: SF-268
SF-539 = experiment: NCI-60 SRB screen: CNS cancer SF-539; assay type: cell-based, human; details: SF-539
MCF7 = experiment: NCI-60 SRB screen: breast cancer MCF7; assay type: cell-based; details: Homo sapiens, 48 h, MCF7
LOX IMVI = experiment: NCI-60 SRB screen: melanoma LOX IMVI; assay type: cell-based, human
OVCAR-5 = experiment: NCI-60 SRB screen: ovarian cancer OVCAR-5; assay type: cell-based, human; details: OVCAR-5
M14 = experiment: NCI-60 SRB screen: melanoma M14; assay type: cell-based, human; details: M14
HL-60(TB) = experiment: NCI-60 SRB screen: leukemia HL-60(TB); assay type: cell-based; details: Homo sapiens, 48 h, HL-60(TB)
[1] = system: 60 human tumor cell lines; experiment: cells
HS 578T = experiment: NCI-60 SRB screen: breast cancer HS 578T; assay type: cell-based, human; details: HS 578T
NCI-H460 = experiment: NCI-60 SRB screen: non-small cell lung cancer NCI-H460; assay type: cell-based; details: Homo sapiens, 48 h, NCI-H460
K-562 = experiment: NCI-60 SRB screen: leukemia K-562; assay type: cell-based, human; details: K-562
OVCAR-8 = experiment: NCI-60 SRB screen: ovarian cancer OVCAR-8; assay type: cell-based, human; details: OVCAR-8
MDA-MB-468 = experiment: NCI-60 SRB screen: breast cancer MDA-MB-468; assay type: cell-based, human
OVCAR-4 = experiment: NCI-60 SRB screen: ovarian cancer OVCAR-4; assay type: cell-based; details: Homo sapiens; OVCAR-4; five concentrations, 48 h, SRB; read-out: GI50
MOLT-4 = experiment: NCI-60 SRB screen: leukemia MOLT-4; assay type: cell-based; details: Homo sapiens, 48 h, MOLT-4
786-0 = experiment: NCI-60 SRB screen: renal cancer 786-0; assay type: cell-based, human; details: 786-0
PC-3 = experiment: NCI-60 SRB screen: prostate cancer PC-3; assay type: cell-based, human; details: PC-3
UACC-62 = experiment: NCI-60 SRB screen: melanoma UACC-62; assay type: cell-based, human; details: UACC-62
NCI-H23 = experiment: NCI-60 SRB screen: non-small cell lung cancer NCI-H23; assay type: cell-based, human; details: NCI-H23
SNB-75 = experiment: NCI-60 SRB screen: CNS cancer SNB-75; assay type: cell-based, human; details: SNB-75
BT-549 = experiment: NCI-60 SRB screen: breast cancer BT-549; assay type: cell-based, human; details: BT-549
SN12C = experiment: NCI-60 SRB screen: renal cancer SN12C; assay type: cell-based, human
MDA-MB-435 = experiment: NCI-60 SRB screen: melanoma MDA-MB-435; assay type: cell-based, human; details: MDA-MB-435
NCI-H522 = experiment: NCI-60 SRB screen: non-small cell lung cancer NCI-H522; assay type: cell-based, human; details: NCI-H522
SK-MEL-28 = experiment: NCI-60 SRB screen: melanoma SK-MEL-28; assay type: cell-based, human; details: SK-MEL-28
A549/ATCC = experiment: NCI-60 SRB screen: non-small cell lung cancer A549/ATCC; assay type: cell-based, human; details: A549/ATCC
OVCAR-3 = experiment: NCI-60 SRB screen: ovarian cancer OVCAR-3; assay type: cell-based, human; details: OVCAR-3
CAKI-1 = experiment: NCI-60 SRB screen: renal cancer CAKI-1; assay type: cell-based, human; details: CAKI-1
ACHN = experiment: NCI-60 SRB screen: renal cancer ACHN; assay type: cell-based, human
Ovarian Cancer subpanel = experiment: NCI-60 screen, subpanel Ovarian Cancer
T-47D = experiment: NCI-60 SRB screen: breast cancer T-47D; assay type: cell-based, human; details: T-47D
[2] = Homo sapiens, five concentrations, 48 h, SRB, read-out: GI50
[3] = single dose 10 µM, read-out: Percentage Cell Growth
[4] = five concentrations, SRB, read-out: GI50

## C=C(C)[C@@H]1CC[C@]2(C(=O)NCCNCCNCCN)CC[C@]3(C)[C@H](CC[C@@H]4[C@@]5(C)CC[C@H](O)C(C)(C)[C@@H]5CC[C@]43C)[C@@H]12 [Compound 6]
SK-OV-3; [2]
  GI50: 17.5 µM
SK-OV-3; single dose 10 µM
  Percentage Cell Growth: −14.17%
Melanoma subpanel
  MID b, average sensitivity of all cell line of particular subpanel: 13.58 µM
  Selectivity, ratio MID a: MID b: 0.89
RPMI-8226; [3]
  activity at 10 µM: -8.15%
RPMI-8226; [4]
  GI50: 2.81 µM
SF-268; [2]
  GI50: 13.5 µM
SF-268; single dose 10 µM
  Percentage Cell Growth: −30.99%
SF-539; [2]
  GI50: 11.1 µM
SF-539; single dose 10 µM
  Percentage Cell Growth: −100.00%
MCF7; [3]
  activity at 10 µM: -60.5%
MCF7; [4]
  GI50: 13.2 µM
LOX IMVI; [2]
  GI50: 14.9 µM
LOX IMVI; single dose 10 µM
  Percentage Cell Growth: −41.03%
OVCAR-5; [2]
  GI50: 18.6 µM
OVCAR-5; single dose 10 µM
  Percentage Cell Growth: −83.37%
M14; [2]
  GI50: 11 µM
M14; single dose 10 µM
  Percentage Cell Growth: −30.98%
HL-60(TB); [3]
  activity at 10 µM: -24%
HL-60(TB); [4]
  GI50: 7.33 µM
[1]; read-out: GI50 ranges against all panels of NCI60
  GI50: 2.95 to 20.1 µM
[1]; read-out: MID a, average sensitivity of all cell line (GI50-MID)
  GI50: 12.2 µM
HS 578T; single dose 10 µM
  Percentage Cell Growth: −23.26%
HS 578T; [2]
  GI50: 20.1 µM
NCI-H460; [3]
  activity at 10 µM: -100%
NCI-H460; [4]
  GI50: 14.7 µM
K-562; Homo sapiens, K562, five concentrations, 48 h, SRB, read-out: GI50
  GI50: 6.9 µM
K-562; single dose 10 µM
  Percentage Cell Growth: −15.78%
OVCAR-8; [2]
  GI50: 18.8 µM
OVCAR-8; single dose 10 µM
  Percentage Cell Growth: −12.90%
MDA-MB-468; [2]
  GI50: 8.88 µM
MDA-MB-468; single dose 10 µM
  Percentage Cell Growth: −48.60%
OVCAR-4
  GI50: 14.1 µM
MOLT-4; [3]
  activity at 10 µM: 1.18%
MOLT-4; [4]
  GI50: 11.5 µM
786-0; single dose 10 µM
  Percentage Cell Growth: −83.51%
786-0; [2]
  GI50: 12.4 µM
PC-3; [2]
  GI50: 2.95 µM
PC-3; single dose 10 µM
  Percentage Cell Growth: 1.07%
UACC-62; [2]
  GI50: 9.29 µM
UACC-62; single dose 10 µM
  Percentage Cell Growth: −100.00%
NCI-H23; [2]
  GI50: 14.7 µM
NCI-H23; single dose 10 µM
  Percentage Cell Growth: −51.70%
SNB-75; [2]
  GI50: 11.1 µM
SNB-75; single dose 10 µM
  Percentage Cell Growth: −79.32%
BT-549; single dose 10 µM
  Percentage Cell Growth: −51.94%
BT-549; [2]
  GI50: 15 µM
SN12C; [2]
  GI50: 13.5 µM
SN12C; single dose 10 µM
  Percentage Cell Growth: −53.68%
MDA-MB-435; [2]
  GI50: 13.4 µM
MDA-MB-435; single dose 10 µM
  Percentage Cell Growth: −89.21%
NCI-H522; [2]
  GI50: 10.3 µM
NCI-H522; single dose 10 µM
  Percentage Cell Growth: −57.83%
SK-MEL-28; [2]
  GI50: 16 µM
SK-MEL-28; single dose 10 µM
  Percentage Cell Growth: −98.68%
A549/ATCC; single dose 10 µM
  Percentage Cell Growth: −64.63%
A549/ATCC; [2]
  GI50: 4.97 µM
OVCAR-3; [2]
  GI50: 12.2 µM
OVCAR-3; single dose 10 µM
  Percentage Cell Growth: −66.02%
CAKI-1; single dose 10 µM
  Percentage Cell Growth: −93.59%
CAKI-1; [2]
  GI50: 5.92 µM
ACHN; [2]
  GI50: 12 µM
ACHN; single dose 10 µM
  Percentage Cell Growth: −100.00%
Ovarian Cancer subpanel
  MID b, average sensitivity of all cell line of particular subpanel: 14.10 µM
  Selectivity, ratio MID a: MID b: 0.86
T-47D; Homo sapiens, T47D, five concentrations, 48 h, SRB, read-out: GI50
  GI50: 10.9 µM
T-47D; single dose 10 µM
  Percentage Cell Growth: −32.56%
